According to patent US4182877A, “Substituted anthranilates” (Commonwealth Scientific and Industrial Research Organization, priority 1976, dated 1980):
In brackets after ≈: the same amount, converted by molar mass.

Each compound was assayed on Tilletia foetida (assay: In vitro inhibition of germination of Tilletia foetida (wheat smut) spores on agar medium). Conditions: Tilletia laevis, 10° C. in the dark, 8-9 days, tested at 5, 10, 25, 50, 100 and 150 ppm, spores germinated as percentage of control, read-out: Minimum inhibitory concentration (ppm) which reduces germination to <20% control.
Format: cell-based
Description: In vitro assays using compounds of the formula I were carried out as follows. An agar medium prepared from Difco "Bacto-Agar" and distilled water was sterilised in an autoclave. Aliquots of the test compounds in acetone solution were added to two duplicate samples of the medium to give final concentrations of 5, 10, 25, 50, 100 and 150 ppm, and the resulting solutions poured into sterilised petri dishes and inoculated with Tilletia foetida (wheat smut) from the kernels of infected wheat. […] The inhibition of germination due to the test compounds was then determined by estimating (microscope) the spores germinated as a percentage of control.

| SMILES | MIC |
| --- | --- |
| CCOC(=O)c1c(Cl)cc(C)cc1N(C)C [Compound 1, Ethyl 6-chloro-4,N,N-trimethylanthranilate] | 25 µg/mL (≈ 103 µM) |
| CCOC(=O)c1c(Cl)c(Cl)c(C)c(Cl)c1N(C)C [Compound 3, Ethyl 3,5,6-trichloro-4,N,N-trimethylanthranilate] | 5 µg/mL (≈ 16.1 µM) |
| CCOC(=O)c1c(N(C)C)cc(C)c(SC#N)c1Cl [Compound 4, Ethyl 6-chloro-4,N,N-trimethyl-5-thiocyanoanthranilate] | < 5 µg/mL |
| CCOC(=O)c1c(N(CC)CC)cc(C)c(SC#N)c1Cl [Compound 5] | 10 µg/mL (≈ 30.6 µM) |
| CCOC(=O)c1c(N(C)C)cc(C)c([N+](=O)[O-])c1Cl [Compound 6, Ethyl-6-chloro-4,N,N-trimethyl-5-nitroanthranilate] | < 5 µg/mL |
| CCOC(=O)c1c(N(CC)CC)cc(C)c([N+](=O)[O-])c1Cl [Compound 7] | 25 µg/mL (≈ 79.4 µM) |
| CCOC(=O)c1c(Cl)cc(C)cc1N(CC)CC [R^1 = R^2 = R^3 = Et] | 25 µg/mL (≈ 92.7 µM) |
